Results on 21 compounds are retold here after US5378803A, “Azole-fused peptides and processes for preparation thereof” (Sterling Winthrop Inc., priority 1992, dated 1995).

Residues, ends and D or L forms follow the SMILES beside them.

T1 sequence (P30547 whole entry): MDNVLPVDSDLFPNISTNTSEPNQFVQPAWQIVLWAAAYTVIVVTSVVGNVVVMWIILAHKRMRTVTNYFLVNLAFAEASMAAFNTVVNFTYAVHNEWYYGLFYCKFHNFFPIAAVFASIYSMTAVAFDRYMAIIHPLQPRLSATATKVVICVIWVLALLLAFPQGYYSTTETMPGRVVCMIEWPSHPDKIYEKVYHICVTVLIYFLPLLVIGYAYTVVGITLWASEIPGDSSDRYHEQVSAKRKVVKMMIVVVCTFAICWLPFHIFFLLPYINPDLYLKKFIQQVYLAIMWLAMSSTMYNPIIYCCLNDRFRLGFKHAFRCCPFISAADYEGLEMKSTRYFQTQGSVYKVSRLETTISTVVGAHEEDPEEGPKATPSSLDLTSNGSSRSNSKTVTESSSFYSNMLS

The assay concerns the target T1, Substance P (Cavia porcellus, UniProt P30547).
T1 construct: Strips of longitudinal muscle (derived from terminal ileum of adult male guinea pigs); from tissue; host or cells: longitudinal muscle strips of terminal ileum, adult male guinea pigs (Charles River)
Put plainly: Guinea pig ileum test for Substance P antagonist effect. To be noted: isolated guinea pig ileum longitudinal muscle strips; Schild plot analysis; 5-10 min contact time; footnote a = limited data due to solubility, b = slope significantly different from -1; read-out: Substance P Antagonist pA2 (converted). The format is cell-based. The protocol: As stated above the azole-fused peptides of Formula I are useful as Substance P antagonists and analgesics or as synthetic intermediates therefor.
Strips of longitudinal muscle (derived from terminal ileum of adult male guinea pigs (Charles River, 400-600 g.) are mounted in 5-ml. organ baths containing oxygenated Krebs solution containing l μM each of atropine and pyrilamine maintained at 30°-33° C. and connected to isometric transducers. Following tissue equilibration and repeated washing (45-60 min.), SP or an appropriate reference agonist is added cumulatively to the bath and contractions of the tissue are recorded. The bath is washed thoroughly and 30-45 min. is allowed to elapse before construction of a second reference agonist curve to assure reproducibility of the responses. Test compounds are similarly evaluated for agonist activity up to a maximum concentration of 10-100 μM. Regression analysis of the linear portion of the log concentration-percent maximal response curves provides the EC50 (and 95% confidence limits), the standard measure of agonist potency. When appropriate, relative molar potency ratios are calculated (EC50 reference/ED50 test drug). Antagonist activity is examined by pretreating thoroughly washed tissues with test compound (using a standard 5-10 min. contact time), then constructing a cumulative dose-response curve to the reference agonist. The effects of several concentrations of test antagonist, pooled across separate experiments, provide dose-ratio (EC50 shift) data for a standard Schild plot analysis, with computation of the pA2.
Take `CC(C)C[C@H](NC(=O)[C@@H](Cc1c[nH]c2ccccc12)NC(=O)c1nc(C2Cc3c([nH]c4ccccc34)CN2)sc1-c1ccccc1)C(=O)N[C@@H](Cc1ccccc1)C(N)=O` (single isomer, unassigned) [Example 7]: the Kb is over 10000 nM.
To `CC(C)C[C@H](NC(=O)[C@@H](Cc1c[nH]c2ccccc12)NC(=O)c1nc(C2Cc3c([nH]c4ccccc34)CN2)sc1-c1ccccc1)C(=O)N[C@@H](Cc1ccccc1)C(N)=O` (single isomer, unassigned) [Example 8] belongs 7940 nM.
To `CN(C)CCNC(=O)[C@@H](Cc1c[nH]c2ccccc12)NC(=O)c1nc(C(Cc2c[nH]c3ccccc23)NC(=O)[C@@H]2CCCN2)sc1-c1ccccc1` (single isomer, unassigned) [Example 11] belongs 7940 nM; to `CN(C)CCNC(=O)[C@@H](Cc1c[nH]c2ccccc12)NC(=O)c1nc(C(Cc2c[nH]c3ccccc23)NC(=O)[C@@H]2CCCN2)sc1-c1ccccc1` (single isomer, unassigned) [Example 12], 5010 nM.
To `CC(C)C[C@H](NC(=O)[C@@H](Cc1c[nH]c2ccccc12)NC(=O)c1nc([C@H](Cc2c[nH]c3ccccc23)NC(=O)[C@@H]2CCCN2)sc1-c1ccccc1)C(=O)N[C@@H](Cc1ccccc1)C(N)=O` [Example 2] belongs 126 nM; to `CC(C)C[C@H](NC(=O)[C@@H](Cc1c[nH]c2ccccc12)NC(=O)c1nc([C@@H](Cc2c[nH]c3ccccc23)NC(=O)[C@@H]2CCCN2)sc1-c1ccccc1)C(=O)N[C@@H](Cc1ccccc1)C(N)=O` [Example 3], 50.1 nM.
`CC(C)c1sc([C@@H](Cc2c[nH]c3ccccc23)NC(=O)[C@H](Cc2ccccc2)NC(=O)[C@@H](Cc2c[nH]c3ccccc23)NC(=O)[C@@H]2CCCN2)nc1C(=O)N[C@@H](Cc1ccccc1)C(N)=O` [Example 4] (HELM PEPTIDE1{P.[dW].F.[CC(C)c1sc([C@@H](Cc2c[nH]c3ccccc23)N[*:1])nc1C(=O)[*:2]].F.[am]}$$$$V2.0): the Kb was 501 nM.
Under `CC(C)c1sc([C@H](Cc2c[nH]c3ccccc23)NC(=O)[C@H](Cc2ccccc2)NC(=O)[C@@H](Cc2c[nH]c3ccccc23)NC(=O)[C@@H]2CCCN2)nc1C(=O)N[C@@H](Cc1ccccc1)C(N)=O` [Example 5] (HELM PEPTIDE1{P.[dW].F.[CC(C)c1sc([C@H](Cc2c[nH]c3ccccc23)N[*:1])nc1C(=O)[*:2]].F.[am]}$$$$V2.0) stands 126 nM; under `CC(C)C[C@H](NC(=O)c1nc([C@H](Cc2ccccc2)NC(=O)[C@@H](Cc2c[nH]c3ccccc23)NC(=O)[C@@H]2CCCN2)sc1-c1c[nH]c2ccccc12)C(=O)N[C@@H](Cc1ccccc1)C(N)=O` [Example 6], 1260 nM; under `CC(C)C[C@H](NC(=O)c1nc([C@H](Cc2ccccc2)NC(=O)[C@@H](Cc2c[nH]c3ccccc23)NC(=O)[C@@H]2CCCN2)oc1-c1c[nH]c2ccccc12)C(=O)N[C@@H](Cc1ccccc1)C(N)=O` [Example 9], 5010 nM.
`CC(C)C[C@H](NC(=O)c1nc([C@H](Cc2ccccc2)NC(=O)[C@@H](Cc2c[nH]c3ccccc23)NC(=O)[C@@H]2CCCN2)[nH]c1-c1c[nH]c2ccccc12)C(=O)N[C@@H](Cc1ccccc1)C(N)=O` [Example 10]: the Kb is 1260 nM.
On to `CC(C)C[C@H](NC(=O)[C@@H](Cc1c[nH]c2ccccc12)NC(=O)c1nc([C@@H](Cc2c[nH]c3ccccc23)NC(=O)[C@@H]2CCCN2)[nH]c1-c1ccccc1)C(=O)N[C@@H](Cc1ccccc1)C(N)=O` [Example 16], for which the Kb is 200 nM.
To `CC(C)C[C@H](NC(=O)[C@@H](Cc1c[nH]c2ccccc12)NC(=O)[C@H](Cc1ccccc1)NC(=O)[C@@H](Cc1c[nH]c2ccccc12)NC(=O)[C@@H]1CCCN1)c1ncc(-c2ccccc2)[nH]1` [Example 17] (HELM PEPTIDE1{P.[dW].F.[dW].[CC(C)C[C@H](N[*:1])c1ncc(-c2ccccc2)[nH]1]}$$$$V2.0) belongs 501 nM.
Under `CC(C)C[C@H](NC(=O)[C@@H](Cc1c[nH]c2ccccc12)NC(=O)c1nc([C@@H](Cc2c[nH]c3ccccc23)NC(=O)[C@@H]2CCCN2)sc1-c1ccccc1)C(=O)N[C@@H](Cc1ccccc1)C(=O)O` [Example 18] stands 316 nM.
Under `CC(C)C[C@H](NC(=O)[C@@H](Cc1c[nH]c2ccccc12)NC(=O)c1nc([C@@H](Cc2c[nH]c3ccccc23)NC(=O)[C@@H]2CCCN2)sc1-c1ccccc1)C(=O)O` [Example 19] stands over 10000 nM; under `CC(C)C[C@H](NC(=O)[C@@H](Cc1c[nH]c2ccccc12)NC(=O)c1nc([C@H](N)Cc2c[nH]c3ccccc23)sc1-c1ccccc1)C(=O)O` [Example 20], over 10000 nM.
For `CC(C)c1sc([C@@H](Cc2c[nH]c3ccccc23)NC(=O)c2nc([C@@H](Cc3c[nH]c4ccccc34)NC(=O)[C@@H]3CCCN3)sc2-c2ccccc2)nc1C(=O)NC[C@@H](N)Cc1ccccc1` [Example 21], the Kb was over 10000 nM.
For the compound `CC(C)C[C@H](NC(=O)[C@@H](Cc1c[nH]c2ccccc12)NC(=O)c1nc([C@@H](Cc2c[nH]c3ccccc23)NC(=O)[C@@H]2CCCN2)sc1-c1ccccc1)C(=O)N(C)C(Cc1ccccc1)C(N)=O` (stereo partly drawn) [Example 22], the Kb is 79.4 nM.
Consider `CC(C)C[C@H](NC(=O)[C@@H](Cc1c[nH]c2ccccc12)NC(=O)c1nc([C@@H](Cc2c[nH]c3ccccc23)NC(=O)[C@@H]2CCCN2)oc1-c1ccccc1)C(=O)N[C@@H](Cc1ccccc1)C(N)=O` [Example 24], for which the Kb was 631 nM.
Under `CC(C)c1sc([C@@H](Cc2c[nH]c3ccccc23)NC(=O)[C@H](Cc2ccccc2)NC(=O)[C@@H](Cc2c[nH]c3ccccc23)NC(=O)[C@@H]2CCCN2)nc1C(=O)NC[C@@H](N)Cc1ccccc1` [Example 25] stands 794 nM; under `CC(C)c1sc([C@@H](Cc2c[nH]c3ccccc23)NC(=O)[C@H](Cc2ccccc2)NC(=O)[C@@H](Cc2c[nH]c3ccccc23)NC(=O)[C@@H]2CCCN2)nc1CN(C)CCc1ccccc1` [Example 27], at least 10000 nM.
